Converted amounts (≈) assume the structure as drawn.
How the values were obtained:
Type in all cases: functional
Enterococcus faecium [1] = assay: In vitro antibacterial activity against vancomycin resistant Enterococcus faecium
Staphylococcus aureus = assay: In vitro antibacterial activity against methicillin sensitive Staphylococcus aureus (ATCC 25923)
Enterococcus faecalis [2] = assay: In vitro antibacterial activity against vancomycin resistant Enterococcus faecalis (VanA, BM4166)
Enterococcus faecalis [3] = assay: In vitro antibacterial activity against vancomycin resistant Enterococcus faecalis (VanB, ATCC 51299)
Enterococcus faecium [4] = assay: In vitro antibacterial activity against Enterococcus faecium (ATCC 35667)

Compound	MIC (Enterococcus faecium [1])	MIC (Staphylococcus aureus)	MIC (Enterococcus faecalis [2])	MIC (Enterococcus faecalis [3])	MIC (Enterococcus faecium [4])
CN[C@H](CC(C)C)C(=O)N[C@H]1C(=O)N[C@@H](CC#N)C(=O)N[C@H]2C(=O)N[C@H]3C(=O)N[C@H](C(=O)N[C@H](C(=O)OC)c4cc(OC)cc(OC)c4-c4cc3ccc4OC)[C@H](O)c3ccc(c(Cl)c3)Oc3cc2cc(c3OC)Oc2ccc(cc2Cl)[C@H]1O	40 µg/mL (≈ 33.4 µM)	0.625 µg/mL (≈ 0.523 µM)	40 µg/mL (≈ 33.4 µM)	2.5 µg/mL (≈ 2.09 µM)	1.25 µg/mL (≈ 1.05 µM)
CN[C@H](CC(C)C)C(=O)N[C@H]1C(=O)N[C@@H](CC#N)C(=O)N[C@H]2C(=O)N[C@H]3C(=O)N[C@H](C(=O)N[C@H](C(=O)O)c4cc(O)cc(O)c4-c4cc3ccc4O)[C@H](O)c3ccc(c(Cl)c3)Oc3cc2cc(c3O[C@@H]2O[C@H](CO)[C@@H](O)[C@H](O)[C@H]2O[C@H]2C[C@](C)(N)[C@H](O)[C@H](C)O2)Oc2ccc(cc2Cl)[C@H]1O	320 µg/mL (≈ 224 µM)	20 µg/mL (≈ 14 µM)	320 µg/mL (≈ 224 µM)	320 µg/mL (≈ 224 µM)	80 µg/mL (≈ 55.9 µM)
CN[C@H](CC(C)C)C(=O)N[C@H]1C(=O)N[C@@H](CC(N)=O)C(=O)N[C@H]2C(=O)N[C@H]3C(=O)N[C@H](C(=O)N[C@H](C(=O)OC)c4cc(OC)cc(OC)c4-c4cc3ccc4OC)[C@H](O)c3ccc(c(Cl)c3)Oc3cc2cc(c3OC)Oc2ccc(cc2Cl)[C@H]1O	40 µg/mL (≈ 32.9 µM)	0.625 µg/mL (≈ 0.515 µM)	40 µg/mL (≈ 32.9 µM)	10 µg/mL (≈ 8.24 µM)	1.25 µg/mL (≈ 1.03 µM)
CN[C@H](CC(C)C)C(=O)N[C@H]1C(=O)N[C@@H](CC(N)=O)C(=O)N[C@H]2C(=O)N[C@H]3C(=O)N[C@H](C(=O)N[C@H](C(=O)O)c4cc(O)cc(O)c4-c4cc3ccc4O)[C@H](O)c3ccc(c(Cl)c3)Oc3cc2cc(c3O[C@@H]2O[C@H](CO)[C@@H](O)[C@H](O)[C@H]2O[C@H]2C[C@](C)(N)[C@H](O)[C@H](C)O2)Oc2ccc(cc2Cl)[C@H]1O [VANCOMYCIN]	500 µg/mL (≈ 345 µM)	1.25 µg/mL (≈ 0.863 µM)	2000 µg/mL (≈ 1380 µM)	125 µg/mL (≈ 86.3 µM)	2.5 µg/mL (≈ 1.73 µM)
CN[C@H](CC(C)C)C(=O)N[C@H]1C(=O)N[C@@H](CC(N)=O)C(=O)N[C@H]2C(=O)N[C@H]3C(=O)N[C@H](C(=O)N[C@H](C(=O)OC)c4cc(O)cc(O)c4-c4cc3ccc4O)[C@H](O)c3ccc(c(Cl)c3)Oc3cc2cc(c3O[C@@H]2O[C@H](CO)[C@@H](O)[C@H](O)[C@H]2O[C@H]2C[C@](C)(N)[C@H](O)[C@H](C)O2)Oc2ccc(cc2Cl)[C@H]1O	640 µg/mL (≈ 437 µM)	2.5 µg/mL (≈ 1.71 µM)	640 µg/mL (≈ 437 µM)	80 µg/mL (≈ 54.7 µM)	2.5 µg/mL (≈ 1.71 µM)
CN[C@H](CC(C)C)C(=O)N[C@H]1C(=O)N[C@@H](CC(N)=O)C(=O)N[C@H]2C(=O)N[C@H]3C(=O)N[C@H](C(=O)N[C@H](C(=O)OC)c4cc(O)cc(O)c4-c4cc3ccc4O)[C@H](O)c3ccc(c(Cl)c3)Oc3cc2cc(c3O)Oc2ccc(cc2Cl)[C@H]1O	320 µg/mL (≈ 276 µM)	5 µg/mL (≈ 4.32 µM)	640 µg/mL (≈ 553 µM)	320 µg/mL (≈ 276 µM)	10 µg/mL (≈ 8.64 µM)
CN[C@H](CC(C)C)C(=O)N[C@H]1C(=O)N[C@@H](CC#N)C(=O)N[C@H]2C(=O)N[C@H]3C(=O)N[C@H](C(=O)N[C@H](C(=O)O)c4cc(O)cc(O)c4-c4cc3ccc4O)[C@H](O)c3ccc(c(Cl)c3)Oc3cc2cc(c3O)Oc2ccc(cc2Cl)[C@H]1O	640 µg/mL (≈ 568 µM)	10 µg/mL (≈ 8.88 µM)	640 µg/mL (≈ 568 µM)	320 µg/mL (≈ 284 µM)	20 µg/mL (≈ 17.8 µM)
CN[C@H](CC(C)C)C(=O)N[C@H]1C(=O)N[C@@H](CC#N)C(=O)N[C@H]2C(=O)N[C@H]3C(=O)N[C@H](C(=O)N[C@H](C(=O)O)c4cc(OC)cc(OC)c4-c4cc3ccc4OC)[C@H](O)c3ccc(c(Cl)c3)Oc3cc2cc(c3OC)Oc2ccc(cc2Cl)[C@H]1O	160 µg/mL (≈ 135 µM)	0.31 µg/mL (≈ 0.262 µM)	160 µg/mL (≈ 135 µM)	20 µg/mL (≈ 16.9 µM)	2.5 µg/mL (≈ 2.11 µM)
CN[C@H](CC(C)C)C(=O)N[C@H]1C(=O)N[C@@H](CC#N)C(=O)N[C@H]2C(=O)N[C@H]3C(=O)N[C@H](C(=O)N[C@H](C(=O)OC)c4cc(O)cc(O)c4-c4cc3ccc4O)[C@H](O)c3ccc(c(Cl)c3)Oc3cc2cc(c3O)Oc2ccc(cc2Cl)[C@H]1O	320 µg/mL (≈ 281 µM)	1.25 µg/mL (≈ 1.1 µM)	320 µg/mL (≈ 281 µM)	320 µg/mL (≈ 281 µM)	5 µg/mL (≈ 4.39 µM)
CN[C@H](CC(C)C)C(=O)N[C@H]1C(=O)N[C@@H](CC(N)=O)C(=O)N[C@H]2C(=O)N[C@H]3C(=O)N[C@H](C(=O)N[C@H](C(=O)O)c4cc(O)cc(O)c4-c4cc3ccc4O)[C@H](O)c3ccc(c(Cl)c3)Oc3cc2cc(c3O)Oc2ccc(cc2Cl)[C@H]1O [VANCOMYCIN AGLYCON]	160 µg/mL (≈ 140 µM)	0.625 µg/mL (≈ 0.546 µM)	640 µg/mL (≈ 559 µM)	80 µg/mL (≈ 69.9 µM)	2.5 µg/mL (≈ 2.19 µM)
CN[C@H](CC(C)C)C(=O)N[C@H]1C(=O)N[C@@H](CC(N)=O)C(=O)N[C@H]2C(=O)N[C@H]3C(=O)N[C@H](C(=O)N[C@H](C(=O)O)c4cc(OC)cc(OC)c4-c4cc3ccc4OC)[C@H](O)c3ccc(c(Cl)c3)Oc3cc2cc(c3OC)Oc2ccc(cc2Cl)[C@H]1O	40 µg/mL (≈ 33.3 µM)	0.625 µg/mL (≈ 0.521 µM)	40 µg/mL (≈ 33.3 µM)	20 µg/mL (≈ 16.7 µM)	2.5 µg/mL (≈ 2.08 µM)
CN[C@H](CC(C)C)C(=O)N[C@H]1C(=O)N[C@@H](CC#N)C(=O)N[C@H]2C(=O)N[C@H]3C(=O)N[C@H](C(=O)N[C@H](C(=O)OC)c4cc(O)cc(O)c4-c4cc3ccc4O)[C@H](O)c3ccc(c(Cl)c3)Oc3cc2cc(c3O[C@@H]2O[C@H](CO)[C@@H](O)[C@H](O)[C@H]2O[C@H]2C[C@](C)(N)[C@H](O)[C@H](C)O2)Oc2ccc(cc2Cl)[C@H]1O	320 µg/mL (≈ 221 µM)	2.5 µg/mL (≈ 1.73 µM)	640 µg/mL (≈ 443 µM)	160 µg/mL (≈ 111 µM)	10 µg/mL (≈ 6.92 µM)
